From ChEMBL document CHEMBL5360672, “Identification of Novel Dual-Target Estrogen Receptor α Degraders with Tubulin Inhibitory Activity for the Treatment of Endocrine-Resistant Breast Cancer” (J Med Chem, 2023)
Calls of active or inactive are those of the source. The rule behind the calls is not given here.

How the values were obtained:
Mus musculus [1] = assay: In vivo induction of ERalpha degradation in BALB/c nude mouse xenografted with human MCF7 cells assessed as decrease in ERalpha expression in tumor at 2 to 4 mg/kg, ip administered every other day for 20 days by Western blot analysis; type: functional, organism-based; settings: dose 2-4 mg/kg, time 20.0 day
[2] = Toxicity in Balb/c nude mouse xenografted with human MCF7 cells assessed as effect on heart morphology at 2 to 4 mg/kg, ip administered every other day for 20 days by H&E staining based analysis; type: organism-based; settings: in vivo, 480 h, dose 2-4 mg/kg, time 20 day
[3] = Antiproliferative activity against human Tamoxifen-resistant LCC2 cells assessed as inhibition of cell proliferation incubated for 72 hrs by CCK8 assay; type: functional, cell-based
T47D [4] = assay: Antiproliferative activity against human T47D cells harboring ERalpha D538G mutant assessed as inhibition of cell proliferation incubated for 72 hrs by CCK8 assay; type: functional, cell-based
[5] = system: Tamoxifen-resistant LCC2 cell; assay: Antitumor activity against human Tamoxifen-resistant LCC2 cells xenografted in Balb/c nude mouse assessed as reduction in Ki67 positive cells at 2 mg/kg, ip administered every other day for 20 days by immunohistochemistry analysis; type: functional, organism-based; settings: time 20.0 day
MCF7 [6] = assay: Antiproliferative activity against ERalpha positive human MCF7 cells assessed as inhibition of cell proliferation incubated for 72 hrs by CCK8 assay; type: functional, cell-based; settings: MCF7, 72 h
[7] = system: Estrogen receptor (Homo sapiens), P03372 [Y537S]; assay: Induction of ERalpha degradation in human T47D cells harboring ERalpha Y537S mutant at 0.5 to 5 uM incubated for 24 hrs by Western blot analysis; type: cell-based; settings: dose 0.5-5 µM
Sequence of Estrogen receptor (Homo sapiens), P03372 [Y537S] (P03372 whole entry Y537S): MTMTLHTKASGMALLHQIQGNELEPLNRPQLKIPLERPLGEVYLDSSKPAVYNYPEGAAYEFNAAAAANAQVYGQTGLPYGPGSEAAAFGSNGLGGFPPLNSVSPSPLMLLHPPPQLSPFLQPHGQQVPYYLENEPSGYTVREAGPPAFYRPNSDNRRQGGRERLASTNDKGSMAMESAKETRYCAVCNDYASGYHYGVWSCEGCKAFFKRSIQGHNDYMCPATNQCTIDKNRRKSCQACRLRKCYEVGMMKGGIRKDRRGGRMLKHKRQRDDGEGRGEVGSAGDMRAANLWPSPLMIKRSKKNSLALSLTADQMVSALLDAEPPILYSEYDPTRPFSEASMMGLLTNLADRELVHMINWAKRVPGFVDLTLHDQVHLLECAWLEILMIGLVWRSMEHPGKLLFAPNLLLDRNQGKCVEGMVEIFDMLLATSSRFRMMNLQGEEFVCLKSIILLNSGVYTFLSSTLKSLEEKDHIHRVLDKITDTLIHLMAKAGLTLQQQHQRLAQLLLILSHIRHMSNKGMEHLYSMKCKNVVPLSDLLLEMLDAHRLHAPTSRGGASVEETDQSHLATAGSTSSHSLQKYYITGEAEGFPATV

[8] = Toxicity in Balb/c nude mouse xenografted with human MCF7 cells assessed as effect on liver morphology at 2 to 4 mg/kg, ip administered every other day for 20 days by H&E staining based analysis; type: organism-based; settings: in vivo, 480 h, dose 2-4 mg/kg, time 20 day
[9] = Cytotoxicity against human MCF-10A cells assessed as inhibition of cell proliferation incubated for 72 hrs by CCK8 assay; type: toxicity, cell-based
MCF7 [10] = assay: Antitumor activity against human MCF7 cells xenografted in Balb/c nude mouse assessed as tumor growth inhibition at 4 mg/kg, ip administered every other day for 20 days relative to control; type: functional; settings: MCF7, 480 h, time 20 day, read-out: TGI
Homo sapiens = species: Homo sapiens; assay: Selectivity ratio of relative binding affinity for human ERalpha to relative binding affinity to human ERbeta
Mus musculus [11] = assay: In vivo induction of ERalpha degradation in BALB/c nude mouse xenografted with human tamoxifen-resistant LCC2 cells assessed as decrease in ERalpha expression in tumor at 2 mg/kg, ip administered every other day for 20 days by Western blot analysis; type: functional, organism-based; settings: time 20.0 day
T47D [12] = assay: Antiproliferative activity against human T47D cells harboring ERalpha Y537S mutant assessed as inhibition of cell proliferation incubated for 72 hrs by CCK8 assay; type: functional, cell-based
[13] = target: T1, Estrogen receptor (Homo sapiens) (UniProt P03372); assay: Binding affinity to human ERalpha assessed as relative binding affinity incubated under vibration for 1 min followed by 2 hrs incubation under dark condition by fluorescence polarization assay relative to estradiol; settings: time 121.0 min
T1 sequence (whole entry): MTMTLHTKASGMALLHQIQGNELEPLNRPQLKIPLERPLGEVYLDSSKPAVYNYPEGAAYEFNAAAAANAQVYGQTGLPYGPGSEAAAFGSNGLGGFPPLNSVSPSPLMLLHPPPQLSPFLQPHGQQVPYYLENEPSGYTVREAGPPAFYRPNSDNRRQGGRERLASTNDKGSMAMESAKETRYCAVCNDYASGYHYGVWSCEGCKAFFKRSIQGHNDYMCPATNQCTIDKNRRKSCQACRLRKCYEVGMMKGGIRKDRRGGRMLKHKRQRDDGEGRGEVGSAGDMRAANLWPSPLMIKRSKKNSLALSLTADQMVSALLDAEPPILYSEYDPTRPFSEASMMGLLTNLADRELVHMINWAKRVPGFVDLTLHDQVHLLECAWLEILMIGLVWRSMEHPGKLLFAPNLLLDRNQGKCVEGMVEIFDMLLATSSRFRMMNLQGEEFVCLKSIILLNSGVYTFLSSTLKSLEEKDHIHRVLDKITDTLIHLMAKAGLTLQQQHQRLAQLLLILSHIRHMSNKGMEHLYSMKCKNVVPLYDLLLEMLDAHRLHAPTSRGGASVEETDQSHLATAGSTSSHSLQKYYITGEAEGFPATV

[14] = target: Estrogen receptor beta (Homo sapiens) (UniProt Q92731); assay: Binding affinity to human ERbeta assessed as relative binding affinity incubated under vibration for 1 min followed by 2 hrs incubation under dark condition by fluorescence polarization assay relative to estradiol; settings: time 121.0 min
Sequence of Estrogen receptor beta (Homo sapiens) (Q92731 whole entry): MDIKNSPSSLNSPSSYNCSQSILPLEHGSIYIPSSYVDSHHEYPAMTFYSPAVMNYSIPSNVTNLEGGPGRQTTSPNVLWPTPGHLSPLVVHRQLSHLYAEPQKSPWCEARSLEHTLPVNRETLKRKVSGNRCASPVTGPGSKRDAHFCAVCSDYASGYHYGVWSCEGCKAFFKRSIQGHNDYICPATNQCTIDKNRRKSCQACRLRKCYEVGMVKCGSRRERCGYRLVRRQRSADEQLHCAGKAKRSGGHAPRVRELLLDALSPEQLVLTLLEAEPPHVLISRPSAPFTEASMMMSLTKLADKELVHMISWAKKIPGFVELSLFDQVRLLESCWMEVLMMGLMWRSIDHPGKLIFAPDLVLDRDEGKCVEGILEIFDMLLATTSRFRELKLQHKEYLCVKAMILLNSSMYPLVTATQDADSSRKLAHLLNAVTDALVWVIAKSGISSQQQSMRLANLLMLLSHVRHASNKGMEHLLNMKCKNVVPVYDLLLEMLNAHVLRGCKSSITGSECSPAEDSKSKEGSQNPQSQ

[15] = target: T1, Estrogen receptor (Homo sapiens); assay: Induction of ERalpha degradation in human MCF7 cells at 1 uM incubated for 6 to 24 hrs by Western blot analysis; type: cell-based; settings: time 6-24 hrs
[16] = target: T1, Estrogen receptor (Homo sapiens); assay: Induction of ERalpha degradation in human MCF7 cells at 5 uM incubated for 24 hrs by Western blot analysis; type: cell-based
MCF7 [17] = assay: Antitumor activity against human MCF7 cells xenografted in Balb/c nude mouse assessed as tumor growth inhibition at 2 mg/kg, ip administered every other day for 20 days relative to control; type: functional; settings: MCF7, 480 h, time 20 day, read-out: TGI
Tubulin (Homo sapiens) [18] = target: T2, Tubulin (Homo sapiens) (UniProt P68371+Q9H4B7+P0DPH7+P68366+Q13509+Q71U36+P04350+Q3ZCM7+P07437+P68363+Q9BQE3+Q6PEY2+Q13885+Q9BVA1+Q9BUF5); assay: Disruption of microtubule network in human MCF7 cells assessed as ruptured microtubule network at 2 uM incubated for 48 hrs by DAPI staining based confocal laser scanning microscopic analysis; type: cell-based
[19] = target: T1, Estrogen receptor (Homo sapiens); assay: Induction of ERalpha degradation in human MCF7 cells incubated for 6 to 24 hrs by Western blot analysis; type: cell-based; settings: dose 0.5-5 µM, time 6-24 hrs
Tubulin (Homo sapiens) [20] = target: T2, Tubulin (Homo sapiens); assay: Disruption of microtubule network in human LCC2 cells assessed as chaotic microtubule network at 4 uM incubated for 48 hrs by DAPI staining based confocal laser scanning microscopic analysis; type: cell-based
Tubulin (Homo sapiens) [21] = target: T2, Tubulin (Homo sapiens); assay: Inhibition of tubulin polymerization (unknown origin) at 30 uM incubated for 60 mins by microplate reader analysis; type: protein-complex assay
MDA-MB-231 = assay: Antiproliferative activity against ERalpha negative human MDA-MB-231 cells assessed as inhibition of cell proliferation incubated for 72 hrs by CCK8 assay; type: functional, cell-based; settings: MDA-MB-231, 72 h
[22] = target: T1, Estrogen receptor (Homo sapiens); assay: Induction of ERalpha degradation in human MCF7 cells at 5 uM incubated for 24 hrs in the presence of MG-132 by Western blot analysis; type: cell-based
[23] = target: T1, Estrogen receptor (Homo sapiens); assay: Induction of ERalpha degradation in human MCF7 cells at 5 uM incubated for 24 hrs by Western blot analysis relative to SeCN-OBHSA derivatives; type: cell-based
[24] = Selectivity index, ratio of IC50 for cytotoxicity against human MCF-10A cells to IC50 for antiproliferative activity against human MCF7 cells; type: toxicity, cell-based; settings: MCF-10A cells and MCF7 cells, read-out: Ratio IC50
[25] = target: T1, Estrogen receptor (Homo sapiens); assay: Induction of ERalpha degradation in human Tamoxifen-resistant LCC2 cells at 0.5 uM incubated for 6 to 24 hrs by Western blot analysis; type: cell-based; settings: Tamoxifen-resistant LCC2 cell, time 6-24 hrs
[26] = Toxicity in Balb/c nude mouse xenografted with human MCF7 cells assessed as body weight loss at 2 to 4 mg/kg, ip administered every other day for 20 days; type: organism-based; settings: in vivo, 480 h, dose 2-4 mg/kg, time 20 day
T47D [27] = assay: Antiproliferative activity against ERalpha positive human T47D cells assessed as inhibition of cell proliferation incubated for 72 hrs by CCK8 assay; type: functional, cell-based
[28] = Toxicity in Balb/c nude mouse xenografted with human MCF7 cells assessed as effect on kidney morphology at 2 to 4 mg/kg, ip administered every other day for 20 days by H&E staining based analysis; type: organism-based; settings: in vivo, 480 h, dose 2-4 mg/kg, time 20 day
MCF7 [29] = assay: Antitumor activity against human MCF7 cells xenografted in Balb/c nude mouse assessed as reduction in Ki67 positive cells at 2 to 4 mg/kg, ip administered every other day for 20 days by immunohistochemistry analysis; type: functional, organism-based; settings: dose 2-4 mg/kg, time 20.0 day
[30] = Antitumor activity against human Tamoxifen-resistant LCC2 cells xenografted in Balb/c nude mouse assessed as tumor growth inhibition at 2 mg/kg, ip administered every other day for 20 days relative to control; type: functional; settings: Tamoxifen-resistant LCC2 cell, 480 h, time 20 day, read-out: TGI
Tubulin (Homo sapiens) [31] = target: T2, Tubulin (Homo sapiens); assay: Disruption of microtubule network in human MCF7 cells assessed as chaotic microtubule network at 2 uM incubated for 48 hrs by DAPI staining based confocal laser scanning microscopic analysis; type: cell-based
[32] = system: Estrogen receptor (Homo sapiens), P03372 [D538G]; assay: Induction of ERalpha degradation in human T47D cells harboring ERalpha D538G mutant at 0.5 to 5 uM incubated for 24 hrs by Western blot analysis; type: cell-based; settings: dose 0.5-5 µM
Sequence of Estrogen receptor (Homo sapiens), P03372 [D538G] (P03372 whole entry D538G): as the sequence (P03372 whole entry Y537S) above, with S537Y, D538G counted along it

Tubulin (Homo sapiens) [33] = target: T2, Tubulin (Homo sapiens); assay: Disruption of microtubule network in human LCC2 cells assessed as ruptured microtubule network at 4 uM incubated for 48 hrs by DAPI staining based confocal laser scanning microscopic analysis; type: cell-based
Estrogen receptor = target: T3, Estrogen receptor (Homo sapiens, UniProt P03372); assay: Antagonist activity at ERalpha (unknown origin) expressed in HEK293T cells co-expressing ERbeta and ERE-luciferase reporter assessed as reduction in relative light unit incubated for 24 hrs by dual-luciferase reporter assay; type: cell-based
T3 sequence (P03372 whole entry): T1 sequence (whole entry)

MCF7 [34] = assay: Induction of cell cycle arrest in human MCF7 cells assessed as increase in G2/M phase cells at 0 to 8 uM incubated for 48 hrs by flow cytometry analysis (reference value: 17.45%); type: functional; settings: dose 0-8 µM
LCC2 = assay: Induction of cell cycle arrest in human LCC2 cells assessed as accumulation of cells at G2/M phase incubated for 48 hrs by flow cytometry analysis; type: functional, cell-based; settings: dose 6-24 µM

SMILES | IC50 [3] | IC50 (T47D [4]) | IC50 (MCF7 [6]) | IC50 at 72 h [9] | Selectivity ratio (Homo sapiens) | IC50 (T47D [12]) | RBA [13] | RBA [14] | inhibition in vivo at 2 mg/kg (MCF7 [17]) | Activity (Tubulin (Homo sapiens) [18]) | Activity (Tubulin (Homo sapiens) [20]) | tubulin polymerization inhibition (active/not active) (Tubulin (Homo sapiens) [21]) | IC50 (MDA-MB-231) | selectivity ratio [24] | IC50 (T47D [27]) | inhibition in vivo at 2 mg/kg [30] | Activity (Tubulin (Homo sapiens) [31]) | Activity (Tubulin (Homo sapiens) [33]) | further results
CCN(c1ccccc1F)S(=O)(=O)C1CC2OC1C(c1ccc(NC(=O)CCCCC[Se]C#N)cc1)=C2c1ccc(O)cc1 (stereo not given) | 2810 nM | 3000 nM | 90 nM | 18300 nM | 15.8 | 1440 nM | 7.26% | 0.46% | 69.1% | Active | Active | Active | 3700 nM | 203 | 2820 nM | 56.9% | Active | Active | Activity (Mus musculus [1]): Active; Activity [2]: Non-Toxic; Activity [5]: Active; Activity [7]: Active; Activity [8]: Non-Toxic; inhibition in vivo at 4 mg/kg (MCF7 [10]): 79.3%; Activity (Mus musculus [11]): Active; Activity [15]: Active; Activity [16]: Active; Activity [19]: Dose-Dependent Effect; Activity [22]: inactive; Activity [23]: Active; Activity [25]: 100%; Activity [26]: Non-Toxic; Activity [28]: Non-Toxic; Activity (MCF7 [29]): Active; Activity [32]: Active
C[C@]12CC[C@@H]3c4ccc(O)cc4C[C@@H](CCCCCCCCC[S+]([O-])CCCC(F)(F)C(F)(F)F)[C@H]3[C@@H]1CC[C@@H]2O (stereo not given in full) [FULVESTRANT] | – | – | 120 nM | > 100000 nM | – | – | – | – | 64.1% | – | – | – | > 100000 nM | – | – | 45.8% | – | – | –
N#C[Se]CCCCCC(=O)Nc1ccc(C2=C(c3ccc(O)cc3)C3CC(S(=O)(=O)Oc4ccccc4F)C2O3)cc1 (stereo not given) | 6130 nM | 1470 nM | 280 nM | 17600 nM | 44.5 | 1560 nM | 17.4% | 0.39% | – | Active | Active | Active | 3400 nM | 63 | 850 nM | – | Active | Active | IC50 (Estrogen receptor): 1010 nM; Activity (MCF7 [34]): 27.55%; Activity (LCC2): Dose-Dependent Effect
COc1ccc(N(CC(F)(F)F)S(=O)(=O)C2CC3OC2C(c2ccc(O)cc2)=C3c2ccc(O)cc2)cc1 (stereo not given) | 5160 nM | 7250 nM | 230 nM | 20400 nM | 12.7 | 12700 nM | 0.76% | 0.06% | – | – | – | inactive | – | 88.6 | 6920 nM | – | – | – | –
